Values of other authors in patent US11590127B2, “Gastro-resistant formulation containing posaconazole” (ALFRED E. TIEFENBACHER (GMBH & CO. KG), priority 2015, dated 2023).

aqueous solubility: low aqueous solubility | temperature above which it degrades (thermal degradation): above 160 °C
SMILES: CC[C@@H]([C@H](C)O)n1ncn(-c2ccc(N3CCN(c4ccc(OC[C@@H]5CO[C@@](Cn6cncn6)(c6ccc(F)cc6F)C5)cc4)CC3)cc2)c1=O [Posaconazole]
